From publication PMC6982996, “Discovery of [1,2,4]Triazole Derivatives as New Metallo-β-Lactamase Inhibitors” (Molecules, 2019)

Key:
Type in all cases: biochemical
VIM-5 = VIM-5 inhibition assay (FC5 fluorogenic substrate); details: mean ± SD (n = 3)
Procedure: (§1) Then, we tested all the target compounds against other B1 MBL enzymes, including NDM-1, IMP-1, VIM-1, and VIM-5 (Table 1); all the assay conditions (including enzyme/substrate concentrations) are the same as that previously used. […]. […].
(§2) All the target compounds were freshly prepared in 100 mM DMSO stock solutions. All the MBL and SBL enzymes used in this study were obtained from our collaborator, Li’s Laboratory in Sichuan University. Each compound was initially evaluated for inhibitory activity to MBL and SBL enzymes at 100 and 10 μM, by preincubation with the appropriate amount of enzymes in the assay buffer for 10 min, followed by adding the substrate FC5 to initiate the reactions, and monitoring the fluorescence at λex of 380 nm and λem of 460 nm. The IC50 values for the compounds (with 10 different concentrations in threefold dilution) were further determined. All determinations were tested in triplicate. The IC50 values were obtained from the plot of activity versus inhibitor concentration by using the GraphPad Prism software.

VIM-1 = biological target: T1, VIM-1 (Pseudomonas aeruginosa, UniProt A0A0F7KYQ8); test: VIM-1 inhibition assay (FC5 fluorogenic substrate)
T1 construct: Li's Laboratory, Sichuan University (collaborator, a gift and not a purchase)
Procedure: as §1, §2

VIM-2 = biological target: T2, VIM-2 (Escherichia coli, UniProt Q5U7L7); test: VIM-2 inhibition assay (FC5 fluorogenic substrate); details: for IC50: 10 concentrations in threefold dilution, triplicate, read-out: IC50 against VIM-2; for inhibition at 10 µM / inhibition at 100 µM: mean ± SD (n = 3)
T2 construct: Li's Laboratory, Sichuan University (collaborator, a gift and not a purchase)
Procedure: as §2

NDM-1 = biological target: T3, NDM-1 (Klebsiella pneumoniae, UniProt C7C422); test: NDM-1 inhibition assay (FC5 fluorogenic substrate); details: mean ± SD (n = 3)
T3 construct: Li's Laboratory, Sichuan University (collaborator, a gift and not a purchase)
T3 sequence (C7C422 29-270, looked up, species assumed): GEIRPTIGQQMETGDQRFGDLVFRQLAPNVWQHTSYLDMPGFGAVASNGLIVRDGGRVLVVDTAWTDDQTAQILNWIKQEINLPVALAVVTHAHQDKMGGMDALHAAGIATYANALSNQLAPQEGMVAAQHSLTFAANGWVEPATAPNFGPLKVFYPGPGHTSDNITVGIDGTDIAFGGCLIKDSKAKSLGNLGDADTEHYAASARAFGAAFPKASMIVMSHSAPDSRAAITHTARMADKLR
Procedure: as §1, §2

IMP-1 = biological target: T4, IMP-1 (Serratia marcescens, UniProt P52699); test: IMP-1 inhibition assay (FC5 fluorogenic substrate); details: for IC50: 10 concentrations in threefold dilution, triplicate, read-out: IC50 against IMP-1; for inhibition at 10 µM / inhibition at 100 µM: mean ± SD (n = 3)
T4 construct: Li's Laboratory, Sichuan University (collaborator, a gift and not a purchase)
T4 sequence (P52699 19-246 limits assumed): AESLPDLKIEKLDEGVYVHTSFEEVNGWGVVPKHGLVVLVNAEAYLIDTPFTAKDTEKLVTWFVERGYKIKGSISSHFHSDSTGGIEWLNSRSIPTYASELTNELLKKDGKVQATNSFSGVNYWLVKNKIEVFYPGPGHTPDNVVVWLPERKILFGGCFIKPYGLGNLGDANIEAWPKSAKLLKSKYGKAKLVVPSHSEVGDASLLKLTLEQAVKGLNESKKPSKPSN
Procedure: as §1, §2

FC(F)(F)c1ccc(-c2nnc3n2CCCS3)cc1 [5n, 3-(4-(Trifluoromethyl)phenyl)-6,7-dihydro-5H-[1,2,4]triazolo[3,4-b][1,3]thiazine]
Inhibition % VIM-5 (VIM-5; @ 100 μM): −10 ± 2/– % | IC50 (VIM-1; 10 concentrations in threefold dilution, triplicate, read-out: IC50 against VIM-1): > 100 µM | inhibition at 100 µM (VIM-1; mean ± SD (n = 3)): 61 ± 3% | IC50 (VIM-2): 53.2 µM | inhibition at 10 µM (VIM-2): 43% | inhibition at 100 µM (VIM-2): 82 ± 4% | inhibition at 10 µM (NDM-1): 3% | inhibition at 100 µM (NDM-1): 8 ± 1%

CC(C)(C)c1ccc(-c2nnc3n2CCCS3)cc1 [5o, 3-(4-(Tert-butyl)phenyl)-6,7-dihydro-5H-[1,2,4]triazolo[3,4-b][1,3]thiazine]
IC50 (IMP-1): > 100 µM | inhibition at 10 µM (IMP-1): 15% | inhibition at 100 µM (IMP-1): 63 ± 1% | Inhibition % VIM-5 (VIM-5; @ 100 μM): 15 ± 1/– % | inhibition at 100 µM (VIM-1; mean ± SD (n = 3)): 27 ± 2% | inhibition at 10 µM (VIM-2): 22% | inhibition at 100 µM (VIM-2): 23 ± 4% | inhibition at 10 µM (NDM-1): 9% | inhibition at 100 µM (NDM-1): 11 ± 1%

Cc1c(-c2nnc3n2CCCS3)cccc1[N+](=O)[O-] [5p, 3-(2-Methyl-3-nitrophenyl)-6,7-dihydro-5H-[1,2,4]triazolo[3,4-b][1,3]thiazine]
inhibition at 10 µM (IMP-1): -5% | inhibition at 100 µM (IMP-1): 10 ± 1% | Inhibition % VIM-5 (VIM-5; @ 100 μM): 15 ± 1/– % | inhibition at 100 µM (VIM-1; mean ± SD (n = 3)): 19 ± 2% | IC50 (VIM-2): 53.8 µM | inhibition at 10 µM (VIM-2): 42% | inhibition at 100 µM (VIM-2): 71 ± 6% | inhibition at 10 µM (NDM-1): 22% | inhibition at 100 µM (NDM-1): 16 ± 2%

c1ccc(-c2nnc3n2CCCS3)nc1 [5q, 3-(Pyridin-2-yl)-6,7-dihydro-5H-[1,2,4]triazolo[3,4-b][1,3]thiazine]
inhibition at 10 µM (IMP-1): 3% | inhibition at 100 µM (IMP-1): 9 ± 1% | Inhibition % VIM-5 (VIM-5; @ 100 μM): 14 ± 1/– % | inhibition at 100 µM (VIM-1; mean ± SD (n = 3)): 19 ± 1% | inhibition at 10 µM (VIM-2): 26% | inhibition at 100 µM (VIM-2): 45 ± 1% | inhibition at 10 µM (NDM-1): 20% | inhibition at 100 µM (NDM-1): 11 ± 1%

c1ccc(Cc2nnc3n2CCCS3)cc1 [5r, 3-Benzyl-6,7-dihydro-5H-[1,2,4]triazolo[3,4-b][1,3]thiazine]
Inhibition % VIM-5 (VIM-5; @ 100 μM): 8 ± 1/– % | inhibition at 100 µM (VIM-1; mean ± SD (n = 3)): 25 ± 2% | inhibition at 10 µM (VIM-2): 6% | inhibition at 100 µM (VIM-2): 21 ± 3% | inhibition at 10 µM (NDM-1): 9% | inhibition at 100 µM (NDM-1): 4 ± 1%

Brc1ccc(-c2nnc3n2CCS3)cc1 [5s, 3-(4-Bromophenyl)-5,6-dihydrothiazolo[2,3-c][1,2,4]triazole]
inhibition at 10 µM (IMP-1): 9% | inhibition at 100 µM (IMP-1): 4 ± 1% | Inhibition % VIM-5 (VIM-5; @ 100 μM): 14 ± 2/– % | inhibition at 100 µM (VIM-1; mean ± SD (n = 3)): 29 ± 2% | IC50 (VIM-2): 67.2 µM | inhibition at 10 µM (VIM-2): 50% | inhibition at 100 µM (VIM-2): 80 ± 3% | inhibition at 10 µM (NDM-1): 29% | inhibition at 100 µM (NDM-1): 28 ± 3%

CC(=O)Nc1ccc(Nc2ccc(-c3nnc4n3CCCS4)cc2)cc1 [5t, N-(4-((4-(6,7-dihydro-5H-[1,2,4]triazolo[3,4-b][1,3]thiazin-3-yl)phenyl)amino)phenyl)acetamide]
Inhibition % VIM-5 (VIM-5; @ 100 μM): 31 ± 2/– % | inhibition at 100 µM (VIM-1; mean ± SD (n = 3)): 14 ± 2% | IC50 (VIM-2): > 100 µM | inhibition at 10 µM (VIM-2): 40% | inhibition at 100 µM (VIM-2): 75 ± 4% | inhibition at 10 µM (NDM-1): 13% | inhibition at 100 µM (NDM-1): 23 ± 2%

c1coc(-c2nnc3n2CCCS3)c1 [10a, 3-(Furan-2-yl)-6,7-dihydro-5H-[1,2,4]triazolo[3,4-b][1,3]thiazine]
inhibition at 10 µM (IMP-1): 6% | inhibition at 100 µM (IMP-1): 5 ± 1% | Inhibition % VIM-5 (VIM-5; @ 100 μM): 11 ± 1/– % | inhibition at 100 µM (VIM-1; mean ± SD (n = 3)): 24 ± 3% | inhibition at 10 µM (VIM-2): 22% | inhibition at 100 µM (VIM-2): 32 ± 4% | inhibition at 10 µM (NDM-1): 16% | inhibition at 100 µM (NDM-1): 15 ± 1%

c1csc(-c2nnc3n2CCCS3)c1 [10b, 3-(Thiophen-2-yl)-6,7-dihydro-5H-[1,2,4]triazolo[3,4-b][1,3]thiazine]
IC50 (IMP-1): > 100 µM | inhibition at 10 µM (IMP-1): 27% | inhibition at 100 µM (IMP-1): 57 ± 6% | Inhibition % VIM-5 (VIM-5; @ 10 μM): 21 ± 2% | Inhibition % VIM-5 (VIM-5; @ 100 μM): 18 ± 2% | inhibition at 10 µM (VIM-1; @ 10 μM, mean ± SD (n = 3)): 32% | inhibition at 100 µM (VIM-1; mean ± SD (n = 3)): 30 ± 2% | inhibition at 10 µM (VIM-2): 16% | inhibition at 100 µM (VIM-2): 30 ± 3% | inhibition at 10 µM (NDM-1): 8% | inhibition at 100 µM (NDM-1): 12 ± 2%

Oc1ccccc1-c1nnc2n1CCCS2 [compound 6, 2-(6,7-Dihydro-5H-[1,2,4]triazolo[3,4-b][1,3]thiazin-3-yl)phenol]
inhibition at 10 µM (IMP-1): 5% | inhibition at 100 µM (IMP-1): 30 ± 3% | Inhibition % VIM-5 (VIM-5; @ 100 μM): 10 ± 2/– % | inhibition at 100 µM (VIM-1; mean ± SD (n = 3)): 25 ± 3% | IC50 (VIM-2): > 100 µM | inhibition at 10 µM (VIM-2): 35% | inhibition at 100 µM (VIM-2): 57 ± 5% | inhibition at 10 µM (NDM-1): 21% | inhibition at 100 µM (NDM-1): 26 ± 2%

O=C(O)c1ccccc1-c1nnc2n1CCCS2 [compound 14, 2-(6,7-Dihydro-5H-[1,2,4]triazolo[3,4-b][1,3]thiazin-3-yl)benzoic acid]
inhibition at 10 µM (IMP-1): 18% | inhibition at 100 µM (IMP-1): 15 ± 2% | Inhibition % VIM-5 (VIM-5; @ 100 μM): 11 ± 1/– % | inhibition at 100 µM (VIM-1; mean ± SD (n = 3)): 22 ± 3% | inhibition at 10 µM (VIM-2): 21% | inhibition at 100 µM (VIM-2): 26 ± 2% | inhibition at 10 µM (NDM-1): 10% | inhibition at 100 µM (NDM-1): 7 ± 1%
